Test results published in the supplement of paper PMC10307832.

How the values were obtained:
Test in all cases: relative viability (nuclei count vs DMSO), 5 days (fraction); higher = more cells survive
Sorafenib + Linsitinib = compound: CNC(=O)c1cc(Oc2ccc(NC(=O)Nc3ccc(Cl)c(C(F)(F)F)c3)cc2)ccn1 [Sorafenib] + C[C@]1(O)C[C@@H](c2nc(-c3ccc4ccc(-c5ccccc5)nc4c3)c3c(N)nccn32)C1 [Linsitinib] (partner 1 µM)
Summary of the method: (§1)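 Dosing by pin tool came one day after lung cancer cell lines were seeded in 1536-well plates, using either one drug or a fixed anchor-drug dose plus five library-drug doses (not always all listed) in √10 steps. After 5 days, nuclei were counted on 4× images. Relative viability is treated-well nuclei count divided by vehicle-well nuclei count, and values are medians of duplicate plates.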

Sorafenib + Phenformin = compound: CNC(=O)c1cc(Oc2ccc(NC(=O)Nc3ccc(Cl)c(C(F)(F)F)c3)cc2)ccn1 [Sorafenib] + N=C(N)NC(=N)NCCc1ccccc1 [Phenformin] (partner 250 µM)
Summary of the method: as §1

Sorafenib + AZD7762 = compound: CNC(=O)c1cc(Oc2ccc(NC(=O)Nc3ccc(Cl)c(C(F)(F)F)c3)cc2)ccn1 [Sorafenib] + NC(=O)Nc1cc(-c2cccc(F)c2)sc1C(=O)N[C@H]1CCCNC1 [AZD7762] (partner 0.2 µM)
Summary of the method: as §1

Sorafenib + Dasatinib = compound: CNC(=O)c1cc(Oc2ccc(NC(=O)Nc3ccc(Cl)c(C(F)(F)F)c3)cc2)ccn1 [Sorafenib] + Cc1nc(Nc2ncc(C(=O)Nc3c(C)cccc3Cl)s2)cc(N2CCN(CCO)CC2)n1 [Dasatinib] (partner 0.075 µM)
Summary of the method: as §1

Sorafenib = compound: CNC(=O)c1cc(Oc2ccc(NC(=O)Nc3ccc(Cl)c(C(F)(F)F)c3)cc2)ccn1 [Sorafenib]
Summary of the method: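 MetaXpress counted nuclei in 4× images of lung cancer cell lines that had been fixed, permeabilised and Hoechst-stained in one step. Before that, cells in 1536-well plates were kept overnight at 37 °C, pinned with five √10-spaced library-drug doses on vehicle-anchored plates, and cultured 5 days without medium change. Viability takes treated-well nuclei over vehicle-well nuclei and uses the median across plates. Plates were accepted only at control CV below 25% and at least one doubling.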

NCI-H1944 showed a relative viability (Sorafenib + Linsitinib; first compound 0.08 µM) of 1.21, a relative viability (Sorafenib + Linsitinib; first compound 0.253 µM) of 1.24 and a relative viability (Sorafenib + Linsitinib; first compound 2.53 µM) of 1.3. For the same cell line, the relative viability (Sorafenib + Linsitinib; first compound 8 µM) was 1.09, the relative viability (Sorafenib + Phenformin; first compound 0.08 µM) was 0.207 and the relative viability (Sorafenib + Phenformin; first compound 0.253 µM) was 0.188. It also gave a relative viability (Sorafenib + Phenformin; first compound 2.53 µM) of 0.21, a relative viability (Sorafenib + Phenformin; first compound 8 µM) of 0.144 and a relative viability (Sorafenib + AZD7762; first compound 0.08 µM) of 0.584. It also gave a relative viability (Sorafenib + AZD7762; first compound 0.253 µM) of 0.453, a relative viability (Sorafenib + AZD7762; first compound 2.53 µM) of 0.679 and a relative viability (Sorafenib + AZD7762; first compound 8 µM) of 0.31. It also gave a relative viability (Sorafenib + Dasatinib; first compound 0.08 µM) of 0.213, a relative viability (Sorafenib + Dasatinib; first compound 0.253 µM) of 0.229 and a relative viability (Sorafenib + Dasatinib; first compound 2.53 µM) of 0.245. The relative viability (Sorafenib + Dasatinib; first compound 8 µM) was 0.206, the relative viability (Sorafenib; 0.08 µM) was 0.923 and the relative viability (Sorafenib; 0.253 µM) was 0.927. It also gave a relative viability (Sorafenib; 2.53 µM) of 0.932 and a relative viability (Sorafenib; 8 µM) of 0.734.
For NCI-H1734, the relative viability (Sorafenib + Linsitinib; first compound 0.08 µM) was 0.967, the relative viability (Sorafenib + Linsitinib; first compound 0.253 µM) was 0.836 and the relative viability (Sorafenib + Linsitinib; first compound 2.53 µM) was 0.841. For the same cell line, the relative viability (Sorafenib + Linsitinib; first compound 8 µM) was 0.742, the relative viability (Sorafenib + Phenformin; first compound 0.08 µM) was 0.459 and the relative viability (Sorafenib + Phenformin; first compound 0.253 µM) was 0.362. It also gave a relative viability (Sorafenib + Phenformin; first compound 2.53 µM) of 0.411, a relative viability (Sorafenib + Phenformin; first compound 8 µM) of 0.236 and a relative viability (Sorafenib + AZD7762; first compound 0.08 µM) of 0.572. For the same cell line, the relative viability (Sorafenib + AZD7762; first compound 0.253 µM) was 0.497, the relative viability (Sorafenib + AZD7762; first compound 2.53 µM) was 0.505 and the relative viability (Sorafenib + Dasatinib; first compound 0.08 µM) was 0.536. The relative viability (Sorafenib + Dasatinib; first compound 0.253 µM) was 0.402, the relative viability (Sorafenib + Dasatinib; first compound 2.53 µM) was 0.402 and the relative viability (Sorafenib + Dasatinib; first compound 8 µM) was 0.357. The relative viability (Sorafenib; 0.253 µM) was 0.97, the relative viability (Sorafenib; 2.53 µM) was 0.909 and the relative viability (Sorafenib; 8 µM) was 0.618.
With NCI-H1666 the relative viability (Sorafenib + Linsitinib; first compound 0.08 µM) was 0.927, the relative viability (Sorafenib + Linsitinib; first compound 0.253 µM) was 0.82 and the relative viability (Sorafenib + Linsitinib; first compound 2.53 µM) was 0.656. The relative viability (Sorafenib + Linsitinib; first compound 8 µM) was 0.611, the relative viability (Sorafenib + Phenformin; first compound 0.08 µM) was 0.562 and the relative viability (Sorafenib + Phenformin; first compound 0.253 µM) was 0.546. For the same cell line, the relative viability (Sorafenib + Phenformin; first compound 2.53 µM) was 0.544, the relative viability (Sorafenib + Phenformin; first compound 8 µM) was 0.452 and the relative viability (Sorafenib + AZD7762; first compound 0.08 µM) was 0.865. The relative viability (Sorafenib + AZD7762; first compound 0.253 µM) was 0.778, the relative viability (Sorafenib + AZD7762; first compound 2.53 µM) was 0.797 and the relative viability (Sorafenib + AZD7762; first compound 8 µM) was 0.719. It also gave a relative viability (Sorafenib + Dasatinib; first compound 0.08 µM) of 0.913, a relative viability (Sorafenib + Dasatinib; first compound 0.253 µM) of 0.788 and a relative viability (Sorafenib + Dasatinib; first compound 2.53 µM) of 0.829. It also gave a relative viability (Sorafenib; 0.08 µM) of 0.992, a relative viability (Sorafenib; 0.253 µM) of 0.913 and a relative viability (Sorafenib; 2.53 µM) of 0.985. It also gave a relative viability (Sorafenib; 8 µM) of 0.844.
With EPLC-272H the relative viability (Sorafenib + Linsitinib; first compound 0.08 µM) was 1.31, the relative viability (Sorafenib + Linsitinib; first compound 0.253 µM) was 1.09 and the relative viability (Sorafenib + Linsitinib; first compound 2.53 µM) was 1.11. The relative viability (Sorafenib + Phenformin; first compound 0.08 µM) was 0.402, the relative viability (Sorafenib + Phenformin; first compound 0.253 µM) was 0.264 and the relative viability (Sorafenib + Phenformin; first compound 2.53 µM) was 0.294. It also gave a relative viability (Sorafenib + Phenformin; first compound 8 µM) of 0.315, a relative viability (Sorafenib + AZD7762; first compound 0.08 µM) of 0.247 and a relative viability (Sorafenib + AZD7762; first compound 0.253 µM) of 0.176. For the same cell line, the relative viability (Sorafenib + AZD7762; first compound 8 µM) was 0.209, the relative viability (Sorafenib + Dasatinib; first compound 0.08 µM) was 0.479 and the relative viability (Sorafenib + Dasatinib; first compound 0.253 µM) was 0.341. For the same cell line, the relative viability (Sorafenib + Dasatinib; first compound 2.53 µM) was 0.402, the relative viability (Sorafenib + Dasatinib; first compound 8 µM) was 0.254 and the relative viability (Sorafenib; 0.08 µM) was 1.19. For the same cell line, the relative viability (Sorafenib; 0.253 µM) was 0.842, the relative viability (Sorafenib; 2.53 µM) was 1.09 and the relative viability (Sorafenib; 8 µM) was 0.774.
CAL-12T was tested, and the relative viability (Sorafenib + Linsitinib; first compound 0.08 µM) was 0.889, the relative viability (Sorafenib + Linsitinib; first compound 2.53 µM) was 0.834 and the relative viability (Sorafenib + Linsitinib; first compound 8 µM) was 0.656. The relative viability (Sorafenib + Phenformin; first compound 0.08 µM) was 0.641, the relative viability (Sorafenib + Phenformin; first compound 0.253 µM) was 0.54 and the relative viability (Sorafenib + Phenformin; first compound 2.53 µM) was 0.583. The relative viability (Sorafenib + Phenformin; first compound 8 µM) was 0.202, the relative viability (Sorafenib + AZD7762; first compound 0.08 µM) was 0.642 and the relative viability (Sorafenib + AZD7762; first compound 0.253 µM) was 0.528. For the same cell line, the relative viability (Sorafenib + AZD7762; first compound 2.53 µM) was 0.616, the relative viability (Sorafenib + AZD7762; first compound 8 µM) was 0.432 and the relative viability (Sorafenib + Dasatinib; first compound 0.08 µM) was 0.658. The relative viability (Sorafenib + Dasatinib; first compound 2.53 µM) was 0.415, the relative viability (Sorafenib + Dasatinib; first compound 8 µM) was 0.114 and the relative viability (Sorafenib; 0.08 µM) was 1.01. For the same cell line, the relative viability (Sorafenib; 0.253 µM) was 0.882, the relative viability (Sorafenib; 2.53 µM) was 0.985 and the relative viability (Sorafenib; 8 µM) was 0.644.
Work on LCLC-97TM1 yielded a relative viability (Sorafenib + Linsitinib; first compound 0.08 µM) of 0.224, a relative viability (Sorafenib + Linsitinib; first compound 0.253 µM) of 0.161 and a relative viability (Sorafenib + Linsitinib; first compound 2.53 µM) of 0.153. It also gave a relative viability (Sorafenib + Linsitinib; first compound 8 µM) of 0.184, a relative viability (Sorafenib + Phenformin; first compound 0.08 µM) of 0.413 and a relative viability (Sorafenib + Phenformin; first compound 0.253 µM) of 0.377. It also gave a relative viability (Sorafenib + Phenformin; first compound 2.53 µM) of 0.325, a relative viability (Sorafenib + Phenformin; first compound 8 µM) of 0.356 and a relative viability (Sorafenib + AZD7762; first compound 0.08 µM) of 0.311. The relative viability (Sorafenib + AZD7762; first compound 0.253 µM) was 0.139, the relative viability (Sorafenib + AZD7762; first compound 2.53 µM) was 0.229 and the relative viability (Sorafenib + AZD7762; first compound 8 µM) was 0.214. It also gave a relative viability (Sorafenib + Dasatinib; first compound 0.08 µM) of 0.984, a relative viability (Sorafenib + Dasatinib; first compound 0.253 µM) of 0.841 and a relative viability (Sorafenib + Dasatinib; first compound 2.53 µM) of 0.683. For the same cell line, the relative viability (Sorafenib + Dasatinib; first compound 8 µM) was 0.676, the relative viability (Sorafenib; 0.08 µM) was 1.16 and the relative viability (Sorafenib; 0.253 µM) was 0.778. It also gave a relative viability (Sorafenib; 8 µM) of 0.703.
Cell Line NCI-H650 has a relative viability (Sorafenib + Linsitinib; first compound 0.08 µM) of 0.81, a relative viability (Sorafenib + Linsitinib; first compound 0.253 µM) of 0.664 and a relative viability (Sorafenib + Linsitinib; first compound 2.53 µM) of 0.776. The relative viability (Sorafenib + Linsitinib; first compound 8 µM) was 0.716, the relative viability (Sorafenib + Phenformin; first compound 0.08 µM) was 0.45 and the relative viability (Sorafenib + Phenformin; first compound 0.253 µM) was 0.399. For the same cell line, the relative viability (Sorafenib + Phenformin; first compound 2.53 µM) was 0.461, the relative viability (Sorafenib + Phenformin; first compound 8 µM) was 0.428 and the relative viability (Sorafenib + AZD7762; first compound 0.08 µM) was 1.31. The relative viability (Sorafenib + AZD7762; first compound 0.253 µM) was 0.691, the relative viability (Sorafenib + AZD7762; first compound 2.53 µM) was 0.96 and the relative viability (Sorafenib + AZD7762; first compound 8 µM) was 0.936. It also gave a relative viability (Sorafenib + Dasatinib; first compound 0.08 µM) of 0.508, a relative viability (Sorafenib + Dasatinib; first compound 0.253 µM) of 0.367 and a relative viability (Sorafenib + Dasatinib; first compound 2.53 µM) of 0.462. The relative viability (Sorafenib + Dasatinib; first compound 8 µM) was 0.425, the relative viability (Sorafenib; 0.08 µM) was 1.08 and the relative viability (Sorafenib; 0.253 µM) was 0.82. The relative viability (Sorafenib; 2.53 µM) was 0.83 and the relative viability (Sorafenib; 8 µM) was 0.78.
In the case of NCI-H1395, the relative viability (Sorafenib + Linsitinib; first compound 0.08 µM) is reported as 1.15, the relative viability (Sorafenib + Linsitinib; first compound 0.253 µM) is reported as 0.901 and the relative viability (Sorafenib + Linsitinib; first compound 2.53 µM) is reported as 0.991. The relative viability (Sorafenib + Linsitinib; first compound 8 µM) was 1.13, the relative viability (Sorafenib + Phenformin; first compound 0.08 µM) was 0.51 and the relative viability (Sorafenib + Phenformin; first compound 0.253 µM) was 0.407. It also gave a relative viability (Sorafenib + Phenformin; first compound 2.53 µM) of 0.453, a relative viability (Sorafenib + Phenformin; first compound 8 µM) of 0.392 and a relative viability (Sorafenib + AZD7762; first compound 0.08 µM) of 0.424. For the same cell line, the relative viability (Sorafenib + AZD7762; first compound 2.53 µM) was 0.428, the relative viability (Sorafenib + AZD7762; first compound 8 µM) was 0.429 and the relative viability (Sorafenib + Dasatinib; first compound 0.08 µM) was 0.454. For the same cell line, the relative viability (Sorafenib + Dasatinib; first compound 0.253 µM) was 0.371, the relative viability (Sorafenib + Dasatinib; first compound 2.53 µM) was 0.423 and the relative viability (Sorafenib + Dasatinib; first compound 8 µM) was 0.329. The relative viability (Sorafenib; 0.08 µM) was 1.1, the relative viability (Sorafenib; 0.253 µM) was 0.76 and the relative viability (Sorafenib; 2.53 µM) was 1.02. It also gave a relative viability (Sorafenib; 8 µM) of 0.775.
